According to patent publication US5929075A, “Apolipoprotein-B synthesis inhibitors” (Janssen Pharmaceutica, N.V., priority 1994, dated 1999):

System: apolipoprotein B
Assay: Apolipoprotein B (apo B) inhibition test in cultured human liver cells (Hepg2-cells)
Type: cell-based
Conditions: concentration of the drug needed to reduce apoB secretion to 50% of the control, overnight at 37° C.
Procedure: Cultured human liver cells (Hepg2-cells), which synthesize and secrete low-density lipoproteins, were incubated overnight at 37° C. in a liquid medium containing radioactively labelled leucine. Thus radioactively labelled leucine was incorporated into the apolipoprotein B. The liquid medium was decanted and the apolipoprotein B was isolated by means of a double immunoprecipitation, i.e. first an apolipoprotein B-specific antibody (antibody1) was added to the liquid medium and subsequently a second antibody (antibody2) was added which binds specifically to the apoB-antibody1 -complex. The thus formed apoB-antibody1 -antibody2 complex precipitated and was isolated by centrifuge. Quantification of the amount of apolipoprotein B synthesized during the night resulted from measuring the radioactivity of the isolated complex. To measure the inhibiting activity of the test compound, that test compound was added to the liquid medium at different concentrations and the concentration of apolipoprotein B synthesized in the presence of a test compound (concentration apoB(after)) was compared to the concentration of apolipoprotein B which was synthesized in the absence of the test compound (concentration apoB(control)). For each experiment the inhibition of apolipoprotein-B formation was expressed as
% inhibition=100×(1-concentration of apoB(after)/concentration
When more experiments were carried out for the same concentration, the median value of the inhibition calculated for these experiments was calculated. IC50 -values (concentration of the drug needed to reduce apoB secretion to 50% of the control) were also computed.

**Q.** How did the IC50 turn out when `Cn1cnnc1SC[C@@]1(c2ccc(Cl)cc2)OC[C@@H](COc2ccc(N3CCN(c4ccc(-n5cnn(C6CCCC6)c5=O)cc4)CC3)cc2)O1` (relative stereo) [Compound 24] was run?
**A.** 58 nM

**Q.** `CCC(C)n1cnn(-c2ccc(N3CCN(c4ccc(OC[C@H]5CO[C@](CSc6ncnn6C)(c6ccc(Cl)cc6)O5)cc4)CC3)cc2)c1=O` (relative stereo) [Compound 69] was tested. Which IC50 did it give?
**A.** 26 nM

**Q.** With `CCC(C)n1ncn(-c2ccc(N3CCN(c4ccc(OC[C@H]5CO[C@](CSc6nnnn6C)(c6ccc(Cl)cc6)O5)cc4)CC3)cc2)c1=O` (relative stereo) [Compound 88] as the compound, how does the IC50 read?
**A.** 450 nM

**Q.** With `CCCCn1cnn(-c2ccc(N3CCN(c4ccc(OC[C@@H]5CO[C@@](CSc6nncn6C)(c6ccc(Cl)cc6)O5)cc4)CC3)cc2)c1=O` (relative stereo) [Compound 15] as the compound, how does the IC50 read?
**A.** 48 nM

**Q.** How did the IC50 turn out when `Cn1ncnc1SC[C@]1(c2ccc(F)cc2)OC[C@H](COc2ccc(N3CCN(c4ccc(-n5cnn(C6CCCC6)c5=O)cc4)CC3)cc2)O1` (relative stereo) [Compound 66] was run?
**A.** 130 nM

**Q.** Which IC50 does the source give for `CCC(C)n1ncn(-c2ccc(N3CCN(c4ccc(OC[C@H]5CO[C@](CSc6ccncc6)(c6ccc(Cl)cc6)O5)cc4)CC3)cc2)c1=O` (relative stereo) [Compound 106] here?
**A.** 880 nM

**Q.** With `CCC(CC)n1ccn(-c2ccc(N3CCN(c4ccc(OC[C@H]5CO[C@](CSc6nncn6C)(c6ccc(Cl)cc6)O5)cc4)CC3)cc2)c1=O` (relative stereo) [Compound 122] as the compound, how does the IC50 read?
**A.** 88 nM

**Q.** With `Cn1ncnc1SC[C@]1(c2ccc(F)cc2F)OC[C@H](COc2ccc(N3CCN(c4ccc(-n5cnn(C6CCCC6)c5=O)cc4)CC3)cc2)O1` (relative stereo) [Compound 67] as the compound, how does the IC50 read?
**A.** 180 nM

**Q.** How did the IC50 turn out when `CCC(C)N1CCN(c2ccc(N3CCN(c4ccc(OC[C@H]5CO[C@](CSc6nncn6C)(c6ccc(Cl)cc6)O5)cc4)CC3)cc2)C1=O` (relative stereo) [Compound 94] was run?
**A.** 190 nM

**Q.** How did the IC50 turn out when `CCC(CC)n1cnn(-c2ccc(N3CCN(c4ccc(OC[C@@H]5CO[C@@](CSc6nncn6C)(c6ccc(F)cc6)O5)cc4)CC3)cc2)c1=O` (relative stereo) [Compound 12] was run?
**A.** 190 nM

**Q.** Which IC50 does the source give for `CCC(C)n1ncn(-c2ccc(N3CCN(c4ccc(OC[C@@H]5CO[C@@](CSc6nnc(C(F)(F)F)[nH]6)(c6ccc(Cl)cc6)O5)cc4)CC3)cc2)c1=O` (relative stereo) [Compound 49] here?
**A.** 850 nM

**Q.** With `CC(C)Cn1ncn(-c2ccc(N3CCN(c4ccc(OC[C@H]5CO[C@](CSc6ncnn6C)(c6ccc(Cl)cc6)O5)cc4)CC3)cc2)c1=O` (relative stereo) [Compound 61] as the compound, how does the IC50 read?
**A.** 81 nM

**Q.** For `CCCn1nc(CC)nc1SC[C@]1(c2ccc(Cl)cc2)OC[C@H](COc2ccc(N3CCN(c4ccc(-n5cnn(C(C)CC)c5=O)cc4)CC3)cc2)O1` (relative stereo) [Compound 78], which IC50 is on record?
**A.** 53 nM

**Q.** Which IC50 does the source give for `CCC(C)n1ncn(-c2ccc(N3CCN(c4ccc(OC[C@@H]5CO[C@@](CSc6ncn(C(C)C)n6)(c6ccc(Cl)cc6)O5)cc4)CC3)cc2)c1=O` (relative stereo) [Compound 112, (±)-cis-4-[4-[4-[4-[[2-(4-chlorophenyl)-2-[[[1-(1-methylethyl)-1H-1,2,4-triazol-3-yl]thio]methyl]-1,3-dioxolan-4-yl]methoxy]phenyl]-1-piperazinyl]phenyl]-2,4-dihydro-2-(1-methylpropyl)-3H-1,2,4-triazol-3-one] here?
**A.** 980 nM

**Q.** Which IC50 does the source give for `CCC(C)n1ccn(-c2ccc(N3CCN(c4ccc(OC[C@H]5CO[C@](CSc6nncn6C)(c6ccc(F)cc6)O5)cc4)CC3)cc2)c1=O` (relative stereo) [Compound 126] here?
**A.** 140 nM

**Q.** Which IC50 does the source give for `Cn1ncnc1SC[C@]1(c2ccc(F)cc2F)OC[C@H](COc2ccc(N3CCN(c4ccc(-n5ncn(C6CCCC6)c5=O)cc4)CC3)cc2)O1` (relative stereo) [Compound 72] here?
**A.** 190 nM

**Q.** How did the IC50 turn out when `CCC(C)n1ncn(-c2ccc(N3CCN(c4ccc(OC[C@H]5CO[C@](CSc6ncccn6)(c6ccc(Cl)cc6)O5)cc4)CC3)cc2)c1=O` (relative stereo) [Compound 101] was run?
**A.** 160 nM

**Q.** With `CCC(C)n1cnn(-c2ccc(N3CCN(c4ccc(OC[C@H]5CO[C@](CSc6nccs6)(c6ccc(Cl)cc6)O5)cc4)CC3)cc2)c1=O` (relative stereo) [Compound 110] as the compound, how does the IC50 read?
**A.** 27 nM

**Q.** Which IC50 does the source give for `CCC(C)n1ncn(-c2ccc(N3CCN(c4ccc(OC[C@H]5CO[C@](CSc6nc(C)cc(C)n6)(c6ccc(Cl)cc6)O5)cc4)CC3)cc2)c1=O` (relative stereo) [Compound 102] here?
**A.** 370 nM

**Q.** For `CCC(C)n1ncn(-c2ccc(N3CCN(c4ccc(OC[C@H]5CO[C@](CSc6nc(C)co6)(c6ccc(Cl)cc6)O5)cc4)CC3)cc2)c1=O` (relative stereo) [Compound 107], which IC50 is on record?
**A.** 45 nM

**Q.** How did the IC50 turn out when `CC(C)n1cnn(-c2ccc(N3CCN(c4ccc(OC[C@@H]5CO[C@@](CSc6nncn6C)(c6ccc(F)cc6)O5)cc4)CC3)cc2)c1=O` (relative stereo) [Compound 4] was run?
**A.** 260 nM

**Q.** `CCC(C)n1cnn(-c2ccc(N3CCN(c4ccc(OC[C@H]5CO[C@](CSc6ncn[nH]6)(c6ccc(Cl)cc6)O5)cc4)CC3)cc2)c1=O` (relative stereo) [Compound 83] was tested. Which IC50 did it give?
**A.** 15 nM

**Q.** Which IC50 does the source give for `CCC(CC)n1cnn(-c2ccc(N3CCN(c4ccc(OC[C@H]5CO[C@](CSc6ncnn6C)(c6ccc(F)cc6F)O5)cc4)CC3)cc2)c1=O` (relative stereo) [Compound 73] here?
**A.** 180 nM

**Q.** With `CC(C)Cn1cnn(-c2ccc(N3CCN(c4ccc(OC[C@H]5CO[C@](CSc6nccs6)(c6ccc(Cl)cc6)O5)cc4)CC3)cc2)c1=O` (relative stereo) [Compound 111] as the compound, how does the IC50 read?
**A.** 62 nM

**Q.** For `CC(C)n1ncn(-c2ccc(N3CCN(c4ccc(OC[C@@H]5CO[C@@](CSc6nncn6C)(c6ccc(Cl)cc6)O5)cc4)CC3)cc2)c1=O` (relative stereo) [Compound 33], which IC50 is on record?
**A.** 91 nM

**Q.** How did the IC50 turn out when `CCC(C)n1ncn(-c2ccc(N3CCN(c4ccc(OC[C@H]5CO[C@](CSc6nncn6CC)(c6ccc(Cl)cc6)O5)cc4)CC3)cc2)c1=O` (relative stereo) [Compound 53] was run?
**A.** 84 nM

**Q.** For `CCC(CC)n1ccn(-c2ccc(N3CCN(c4ccc(OC[C@H]5CO[C@](CSc6nncn6C)(c6ccc(F)cc6)O5)cc4)CC3)cc2)c1=O` (relative stereo) [Compound 130], which IC50 is on record?
**A.** 140 nM

**Q.** Which IC50 does the source give for `CCC(CC)n1ncn(-c2ccc(N3CCN(c4ccc(OC[C@H]5CO[C@](CSc6ncnn6C)(c6ccc(F)cc6)O5)cc4)CC3)cc2)c1=O` (relative stereo) [Compound 64] here?
**A.** 160 nM

**Q.** Which IC50 does the source give for `CCC(C)n1ncn(-c2ccc(N3CCN(c4ccc(OC[C@@H]5CO[C@@](CSc6nnc(C(F)(F)F)n6C)(c6ccc(Cl)cc6)O5)cc4)CC3)cc2)c1=O` (relative stereo) [Compound 50] here?
**A.** 260 nM

**Q.** How did the IC50 turn out when `CC(C)Cn1cnn(-c2ccc(N3CCN(c4ccc(OC[C@H]5CO[C@](CSc6ncn[nH]6)(c6ccc(Cl)cc6)O5)cc4)CC3)cc2)c1=O` (relative stereo) [Compound 84] was run?
**A.** 28 nM

**Q.** Which IC50 does the source give for `CCC(C)n1ncn(-c2ccc(N3CCN(c4ccc(OC[C@H]5CO[C@](CSc6ncnn6C)(c6ccc(Cl)cc6)O5)cc4)CC3)cc2)c1=O` (relative stereo) [Compound 60] here?
**A.** 46 nM

**Q.** With `CCC(CC)n1ncn(-c2ccc(N3CCN(c4ccc(OC[C@@H]5CO[C@@](CSc6nncn6C)(c6ccc(F)cc6)O5)cc4)CC3)cc2)c1=O` (relative stereo) [Compound 43] as the compound, how does the IC50 read?
**A.** 110 nM

**Q.** How did the IC50 turn out when `CC(C)n1cnn(-c2ccc(N3CCN(c4ccc(OC[C@H]5CO[C@](CSc6ncnn6C)(c6ccc(Cl)cc6)O5)cc4)CC3)cc2)c1=O` (relative stereo) [Compound 68] was run?
**A.** 81 nM

**Q.** With `CCC(C)n1ncn(-c2ccc(N3CCN(c4ccc(OC[C@@H]5CO[C@@](CSc6nncn6C)(c6ccc(F)cc6)O5)cc4)CC3)cc2)c1=O` (relative stereo) [Compound 28] as the compound, how does the IC50 read?
**A.** 97 nM
